Measurements published in patent US20080146555A1, “Uses of Kinase Inhibitors and Compositions Thereof” (GPC Biotech, Inc, priority 2004, published 2008).
Values after ≈ are worked out from the molar mass of the structure shown. Counter-ions that a name gives are not always drawn.

Tests used:
[1] = tested on: Rb phosphorylation at Serine-780; assay: Rb phosphorylation; assay type: cell-based
Aqueous solubility = assay type: physicochemical; details: water (aqueous solution)
Solution stability = assay type: physicochemical; details: pH6, room temperature, kept in dark
[2] = MTD/toxicity study in rats; assay type: in vivo; details: 50-80 mg/kg i/v, QDx5/2/5 schedule
Protocol: A similar scheme can also be employed in experimental rats and other animals. For example, to determine MTD in rats, 50-80 mg/kg of A37 was dosed i/v in a QDx5/2/5 schedule.

A2780 xenograft = A2780 xenograft tumor model; design: species or system mice; details: mouse, in vivo
Protocol: (§1) Drugs. Compounds of the invention were synthesized and prepared for i.v. administration in a biocompatible vehicle. CPT-11 (Camptosar®, Pharmacia) was obtained as the pharmaceutical drug and was prepared in 5% dextrose-water (D5W). All preparations were made fresh weekly and injection volumes were adjusted to body weight (0.2 ml/20 g mouse).
(§2) Mice/Husbandry. Female nu/nu mice were obtained from Charles River, housed in static microisolators, and provided ad libitum with water and an irradiated standard rodent diet (Purina Pico-Lab Rodent Diet 20).
(§3) Standard Protocol. […] Animals were initially monitored twice weekly for tumor growth and then daily as the implants approached the desired size of approximately 100 mm^3. When the tumors grew to between 62-221 mg in calculated tumor weight, the animals were pair-matched into appropriate experimental treatment groups (8-10 animals/group) and treatment with test compounds was initiated. […] Tumor weights were calculated and body weights were taken twice weekly and animals were observed frequently for adverse drug effects. […]
(§4) Tumors were measured by determining the length and width of the tumor with a digital caliper. […]
(§5) Log cell kill (LCK) is a calculation that determines the percentage of tumor cells that are killed after the initiation of treatment and can be used as a quantitative measure of efficacy: […]

PC3 xenograft = PC3 xenograft tumor model; design: species or system mice; details: mouse, in vivo
Protocol: as §1, §2, §3, §4, §5

HT29 = assay: SRB cytotoxicity, HT29 parental cells; assay type: cell-based; details: Homo sapiens, HT-29, 72 h
Protocol: In these experiments, the P-glycoprotein expressing NCI-Adr resistant subline (Vickers et al., 1989. Mol Endocrinology 3 (1):157-164) was used. […] Briefly, cells were plated in 96 well dishes 24 hours prior to compound addition. Where noted, they were exposed to verapamil for 4 hours prior to compound addition and then throughout the treatment period (72 hours). The assay was terminated with the addition of cold TCA to a final concentration of 10% and the plates were incubated for one hour at 4° C. The plates were then washed 5 times with water and 100 μl of a Sulforhodamine B solution (4%) was added to each well. The plate was then incubated for 10 minutes at room temperature before removal of unbound dye by washing with 1% acetic acid.
The parental non-mutated cell line HT29 was used as a control.
Z. Cytotoxicity was measured using the SRB assay according to Shekan et al. as described above in Example 1A.

Structure (SMILES)	Rb phosphorylation at Serine-780 [1]	solubility (Aqueous solubility) [mg/mL]	Solution stability (Solution stability) [mo.]	cardiotoxicity [2]	efficacy in A2780 xenograft tumor model (A2780 xenograft)	efficacy in PC3 xenograft tumor model (PC3 xenograft)	IC50 (HT29) [nM]
CC(C)N1CCN(C(=O)COc2ccc(-c3n[nH]c4c3C(=O)c3c(NC(=O)NN5CCOCC5)cccc3-4)cc2)CC1 [Compound A37]	inhibits Rb phosphorylation at Serine-780	15 to 20 (≈ 26.1 to 34.9 mM)	> 1	did not induce cardiotoxicity	high efficacy	high efficacy	
COCCN1CCN(Cc2ccc(-c3n[nH]c4c3C(=O)c3c(NC(=O)NN5CCOCC5)cccc3-4)cc2)CC1 [Compound B16, N-[3-(4-{[4-(2-methoxyethyl)piperazinyl]methyl}phenyl)-4-oxoindeno[2,3-d]pyrazol-5-yl](morpholin-4-ylamino)carboxamide dihydrochloride]							77
